Entries after “also recorded” stand apart in the source; their conditions may differ.
Legend:
[1] = Binding of HSLs having carbon chains of different lengths
A549 cells [2] = assay: CellTox Green Cytotoxicity Assay; format: cell-based, human
Procedure: (§1) To assess the possible toxicity of P[5]a on the lung cells, two independent viability tests were performed. First, the viability of A549 cells grown in the presence of different concentrations of P[5]a was determined using trypan blue staining. […] Subsequently, the CellTox Green Cytotoxicity Assay (Promega) was carried out for A549 cells grown with and without P[5]a, in the presence or absence of PAO1 P. aeruginosa strain. […] This was not observed for cells grown with the addition of P[5]a in the growth medium.

Pseudomonas aeruginosa = assay: Pyocyanin assay; format: cell-based; details: for production of pyocyanin: 24 hours of growth, OD695
Excerpt: In testing the functionality of P[5]a as an actual quorum sensing inhibitor a pathogenic Gram-negative bacterium, Pserudomonas aeruginosa, which contains the LasI synthase that produces the 3-oxo-C12 HSL, was used.
P. aeruginosa utilizes multiple quorum sensing systems (Las, Rhl and Pqs). The Las system is at the top of a cascade that leads to the activation of the other quorum sensing systems, and is directly responsible for the production of the green toxin pyocyanin. Pyocyanin is a toxin produced by Pseudomonas aeruginosa, and the production is directly activated by the 3-oxo-C12 HSL. Pyocyanin is responsible for the death of cells in the lung during cystic fibrosis. Thus, the production of this toxin is related directly to the C12 Las AHL signal in a quorum-based response.
Bacterial cells were cultured for 24 hours in Luria Broth (LB) medium with […] added. Then, the culture fluid was separated from the cells and measured at OD695 (this measures the amount of green color).
In a pyocyanin assay, the effect of varying concentrations of a P[5]a (4,9,14,19,24,26,28,30,32,34-Deca[2-(trimethylaminio)ethoxy]hexacyclo[21.2.2.2^3,6.2^8,11.2^13,16.2^18,21]pentatriaconta-1(25),3,5,8,10,13,15,18,20,23,26,28,30,32,34-pentadecaene⋅10bromide, CAS No. 1351445-28-7) on the production of pyocyanin after 24 hours of growth was studied and the results are shown in FIG. 12.

[3] = system: A549 cells infected with P. aeruginosa; assay: Gene expression (total RNA) of A549 cells infected with P. aeruginosa; format: cell-based, human
Procedure: In order to further study the influence of P[5]a on the eukaryotic cells, total RNA was isolated from A549 cells infected with P. aeruginosa in the presence or absence of 100 nM or 2.5 mM P[5]a. The expression of 46 genes were affected strongly enough to meet our stringent criteria and be considered as differentially expressed during the infection with PAO1.

[4] = Stability and dissolution in water; format: physicochemical
A549 cells [5] = assay: Viability of A549 cells, trypan blue staining; format: cell-based, human; details: different concentrations of P[5]a, with vs without
Procedure: as §1

## Resorcin[4]arene
[1]
  binding to N-acyl-homoserine lactones (AHLs): found to bind

## OC[C@H]1O[C@@H]2O[C@H]3[C@H](O)[C@@H](O)[C@@H](O[C@H]4[C@H](O)[C@@H](O)[C@@H](O[C@H]5[C@H](O)[C@@H](O)[C@@H](O[C@H]6[C@H](O)[C@@H](O)[C@@H](O[C@H]7[C@H](O)[C@@H](O)[C@@H](O[C@H]8[C@H](O)[C@@H](O)[C@@H](O[C@H]9[C@H](O)[C@@H](O)[C@@H](O[C@H]1[C@H](O)[C@H]2O)O[C@@H]9CO)O[C@@H]8CO)O[C@@H]7CO)O[C@@H]6CO)O[C@@H]5CO)O[C@@H]4CO)O[C@@H]3CO [gamma-cyclodextrin, Gamma-cyclodextrin]
[1]
  binding to N-acyl-homoserine lactones (AHLs): found to bind

## O=S(=O)(O)c1cc2c(O)c(c1)Cc1cc(S(=O)(=O)O)cc(c1O)Cc1cc(S(=O)(=O)O)cc(c1O)Cc1cc(S(=O)(=O)O)cc(c1O)C2 [4-sulfocalix[4]arene, 25,26,27,28-Tetrahydroxycalix[4]arene-5,11,17,23-tetrasulfonic acid]
[1]
  binding to N-acyl-homoserine lactones (AHLs): found to bind

## OC[C@H]1O[C@@H]2O[C@H]3[C@H](O)[C@@H](O)[C@@H](O[C@H]4[C@H](O)[C@@H](O)[C@@H](O[C@H]5[C@H](O)[C@@H](O)[C@@H](O[C@H]6[C@H](O)[C@@H](O)[C@@H](O[C@H]7[C@H](O)[C@@H](O)[C@@H](O[C@H]1[C@H](O)[C@H]2O)O[C@@H]7CO)O[C@@H]6CO)O[C@@H]5CO)O[C@@H]4CO)O[C@@H]3CO [alpha-cyclodextrin, Alpha-cyclodextrin]
[1]
  binding to N-acyl-homoserine lactones (AHLs): found to bind

## C[N+](C)(C)CCOc1cc2c(OCC[N+](C)(C)C)cc1Cc1cc(OCC[N+](C)(C)C)c(cc1OCC[N+](C)(C)C)Cc1cc(OCC[N+](C)(C)C)c(cc1OCC[N+](C)(C)C)Cc1cc(OCC[N+](C)(C)C)c(cc1OCC[N+](C)(C)C)Cc1cc(OCC[N+](C)(C)C)c(cc1OCC[N+](C)(C)C)C2.[Br-].[Br-].[Br-].[Br-].[Br-].[Br-].[Br-].[Br-].[Br-].[Br-] [P[5]a, 4,9,14,19,24,26,28,30,32,34-Deca[2-(trimethylaminio)ethoxy]hexacyclo[21.2.2.2^3,6.2^8,11.2^13,16.2^18,21]pentatriaconta-1(25),3,5,8,10,13,15,18,20,23,26,28,30,32,34-pentadecaene⋅10bromide]
A549 cells [2]; A549 cells grown with P[5]a, absence of PAO1
  increase in fluorescence (indicator of cell death): not observed
A549 cells [2]; A549 cells infected with PAO1 P. aeruginosa, P[5]a in growth medium
  cell death during infection with PAO1 strain: reduction in cell death in a dose dependent manner
Pseudomonas aeruginosa; P. aeruginosa culture
  cellular growth: not affected at all
Pseudomonas aeruginosa; higher concentrations of P[5]a
  production of pyocyanin: complete inhibition; also recorded: completely inhibit toxin production
Pseudomonas aeruginosa; no or low concentrations of P[5]a
  production of pyocyanin: no significant differences
[3]; 100 nM or 2.5 mM P[5]a, PAO1 infection
  overexpression of differentially expressed genes during infection: reduced the overexpression of many of the differentially expressed genes
[3]; 100 nM or 2.5 mM P[5]a, PAO1 infection, dose-dependent
  expression of CXCL1, CXCL8, CCL20 and ICAM1: significantly reduced
[3]; P[5]a added to infected A549 culture
  expression of adrenomodullin (ADM) and colony stimulating factor 2 (CSF2): further overexpression
[4]
  dissolution in water: easily dissolved
  stability: very good stability
A549 cells [5]
  viability of A549 cells (trypan blue): no significant difference
[1]
  binding to N-acyl-homoserine lactones (AHLs): found to bind
  selectivity of AHL binding by chain length: selectively bind long-chained N-acyl-homoserine lactones

## C1COCCOCCOCCOCCO1 [15-crown-5, 1,4,7,10,13-Pentaoxacyclopentadecane]
[1]
  binding to N-acyl-homoserine lactones (AHLs): found to bind

## O=C1N2CN3C(=O)N4CN5C(=O)N6CN7C(=O)N8CN9C(=O)N%10CN%11C(=O)N%12CN1C1C2N2CN%13C(=O)N(CN%14C(=O)N(CN%15C(=O)N(CN%16C(=O)N(CN%17C(=O)N(CN1C2=O)C%12C%11%17)C%10C9%16)C8C7%15)C6C5%14)C4C3%13 (stereo not shown) [cucurbit[6]uril, Cucurbit[6]uril hydrate]
[1]
  binding to N-acyl-homoserine lactones (AHLs): found to bind
